Molecules are shown by their SMILES. Where a name gives a salt, the structure may show the parent alone.

A short description of this series: Systemic pharmacokinetic study of a bis(bupivacaine) pamoate suspension after a single subcutaneous injection at three points in a hind limb in SD rats. It is filed as in vivo. As to conditions: male, rat, sc, single subcutaneous injection at three points in left hind limb, 5 mg/kg, bupivacaine in blood. The text has this: Systemic Pharmacokinetic Study of a bis(bupivacaine) pamoate Suspension After a Single Subcutaneously Injection at Three Points in a Hind Limb in SD Rats
The systemic absorption and exposure of bis(bupivacaine) pamoate in a rat body was further evaluated by performing a systemic pharmacokinetic research on SD rats which were subcutaneously injected with a bis(bupivacaine) pamoate suspension (Formulation Example 3) once at three points in a left hind limb and comparing with a commercial bupivacaine hydrochloride injection. The long-acting sustained release feature of bis(bupivacaine) pamoate was verified by comparing the pharmacokinetic parameters of bis(bupivacaine) pamoate with a commercial formulation.
In the example, 20 healthy SD male rats (Beijing Vital River Laboratory Animal Technology Co., Ltd., 190 to 210 g) were chosen and randomly divided into 2 groups, i.e., a group for Formulation Example 3 and a group for the commercial bupivacaine hydrochloride injection (Wuhu Kangqi Pharmaceutical Co., Ltd.) group, with 10 animals in each group.
About 0.5 mL of venous blood was collected at 30 min, 1 h, 2 h, 6 h, 8 h, 24 h, 48 h, 72 h and 96 h respectively after administration for both groups of laboratory animals for determining the blood drug concentration of bupivacaine.

Usually AUC(0-t) stands for the area under the concentration-time curve up to a stated or last time point. The low end stands for low exposure, the high end for high exposure. Usually Cmax stands for the maximum level reached in the sampled fluid or tissue. For orientation: Tmax means the time from dosing to the highest level. As usually defined, the half-life is the time needed for the level to fall by half in the phase considered. A low value points to rapid decline. `CCCCN1CCCCC1C(=O)Nc1c(C)cccc1C` (stereo not shown) [bupivacaine hydrochloride]: the AUC(0-t) stood at 711 ng·h/mL, the Cmax came out at 330 ng/mL, the Tmax stood at 37.8 min and the half-life was 60 min.

The values above are taken from patent US11084790B2, “Insoluble complex or solvate thereof, pharmaceutical composition and use thereof” (Fruithy Holdings Limited, priority 2017, dated 2021).
